Values joined by “and” are separate entries in the source; they are usually repeats but may differ in a detail not shown here. Equal entries are not always repeated. Active and inactive are the calls of the source. The calls were made as follows: active = viability on the fitted dose curve at most 10% of control; inactive = the rest.
Test system: VA-ES-BJ tumor spheroid viability
Test: Anticancer human tumor VA-ES-BJ cell line growth inhibition;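 as to IC50: spheroids exposed to compounds for seven days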;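 as to viability, T/C: spheroids exposed to compounds for seven days; percent of DMSO vehicle control viability so 100% = untreated growth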
Settings: spheroids with HUVEC and MSC; for viability, T/C: stronger effect = lower value
From the text: Multicellular complex tumor spheroid response to DNA repair inhibitors in combination with DNA-damaging drugs
This study explores the anticancer activities of DNA-damaging drugs and inhibitors of DNA damage repair, both as single agents and in combinations. Complex tumor spheroids comprised of malignant cells, endothelial cells and mesenchymal stem cells served as an in vitro model for human solid tumors. This model system incorporates physiologically relevant features and patient-derived or established malignant cell lines with clinically relevant genetic alterations from many tumor types. Twenty-six patient-derived or established malignant cell lines were evaluated representing sarcoma, melanoma, small cell lung cancer (SCLC), non-small cell lung cancer (NSCLC), as well as bladder, ovarian and pancreatic cancers. The concentration ranges selected for each drug and investigational agent were based upon clinically achievable concentrations if the clinical Cmax of the agent was known.
Compounds. The drugs and compounds olaparib (NSC753686), talazoparib (NSC767125), berzosertib (NSC777718), elimusertib (NSC800525), nedisertib (NSC802822), VX-984 (NSC792969), AZD-1390 (NSC803789), temozolomide (NSC362856), topotecan (NSC609699), trabectedin (NSC813783), staurosporine (NSC755774), and gemcitabine (NSC613327) were obtained from the National Cancer Institute (NCI) Developmental Therapeutics Program Chemical Repository. The FDA-approved anticancer drug set is available from the Developmental Therapeutics Program at https://dtp.cancer.gov/organization/dscb/obtaining/available_plates.htm. […] The stock solutions were prepared in dimethyl sulfoxide (DMSO, Sigma-Aldrich, St. Louis, MO, cat. D2650) at 400-fold the tested concentration and stored at -70 degrees C. Prior to their use, the stock solutions were diluted in fresh medium and the final DMSO concentration in the assay was 0.25% (v/v). All drugs and investigational agents were tested over a range starting from a high concentration at or near the clinical Cmax and decreasing in half-log increments. If the clinical Cmax for an agent had not been determined, the highest concentration tested was 10 microM.
Cell Lines. The patient-derived cancer cell (PDC) lines: 156681-154-R-J1-PDC, 283228-195-R-J1-PDC, 287954-098-R-J1-PDC, 292921-168-R-J2-PDC, 349418-098-R-PDC, 425362-245-T-J1-PDC, 556581-035-R-J1-PDC, and BL0293-F563-PDC were received from the NCI Patient-Derived Models Repository (PDMR, https://pdmr.cancer.gov). The established cell lines HS-SY-2 (RRID:CVCL_8719), MPNST, and SYO-1 (RRID:CVCL_7146) were obtained from the Sloan Kettering Institute. The alveolar soft parts sarcoma cell line ASPS-1 (RRID:CVCL_S738) was established at the NCI and grown from internal seed stocks. The following established cell lines were purchased from the American Type Culture Collection (ATCC, Manassas, VA): G-401 (ATCC, cat. CRL-1441, RRID:CVCL_0270), SW982 (ATCC, cat. HTB-93, RRID:CVCL_1734), VA-ES-BJ (ATCC, cat. CRL-2138, RRID:CVCL_1785), NCI-H719 (ATCC, cat. CRL-5837, RRID:CVCL_1582), NCI-H196 (ATCC, cat. CRL-5823, RRID:CVCL_1509), NCI-H841 (ATCC, cat. CRL-5845, RRID:CVCL_1595), NCI-H1618 (ATCC, cat. CRL-5879, RRID:CVCL_1480), NCI-H1876 (ATCC, cat. CRL-5902, RRID:CVCL_1503), DMS 114 (ATCC, cat. CRL-2066; RRID:CVCL_1174), NCI-H211 (ATCC, cat. CRL-5824; RRID:CVCL_1529), and SW 1271 (ATCC, cat. CRL-2177, RRID:CVCL_1716). The small cell lung cancer cell line COR-L88 was purchased from Sigma-Aldrich (cat. 92031917-1VL, RRID:CVCL_1141). The non-small cell lung cancer cell lines NCI-H226 (RRID:CVCL_1544) and NCI-H322M (RRID:CVCL_1557) were established at the NCI and grown from internal seed stocks. Pooled donor human umbilical vein endothelial cells (HUVEC, Lonza, cat. CC-2519) and human mesenchymal stem cells (hMSC, Lonza, cat. PT-2501) were purchased from Lonza (Walkersville, MD).
Cell Culture. All cells were maintained in an incubator at 37 degrees C and 5% CO2 with 95% humidity. […]

[1] = compound alone, run of 12/02/2019
[2] = compound alone, run of 12/12/2019

## CC(C)n1c(=O)n(C)c2cnc3cc(F)c(-c4ccc(OCCCN5CCCCC5)nc4)cc3c21
Compound 0.0316 µM
  viability, T/C: 77.7% and 93.7% and 97.1%
Compound 0.1 µM
  viability, T/C: 74.2% and 93.9% and 95.2%
Compound 0.316 µM
  viability, T/C: 73.1% and 90.5% and 92.7%
Compound 1 µM
  viability, T/C: 85.2% and 100% and 99%
Compound 3.16 µM
  viability, T/C: 91.6% and 105% (2×)
Compound 10 µM
  viability, T/C: 59.8% and 65.4% and 71.2%
Curve of compound
  IC50: > 10000 nM

## CC1COCCN1c1cc(-c2ccnn2C)c2ccnc(-c3ccn[nH]3)c2n1 (stereo not drawn)
Compound 0.0316 µM
  viability, T/C: 9.71% and 87.1% and 84.4%
Compound 0.316 µM
  viability, T/C: 9.14% and 23.2% and 30.3%
Compound 1 µM
  viability, T/C: 5.45% and 9.1% and 11%
Compound 3.16 µM
  viability, T/C: 5.18% and 6.34% and 6.93%
Compound 10 µM
  viability, T/C: 4.89% and 6.26% and 6.35%
Curve of compound
  IC50: < 31.6 nM and 110 nM and 153 nM

## CC[C@@]1(O)C(=O)OCc2c1cc1n(c2=O)Cc2cc3c(CN(C)C)c(O)ccc3nc2-1
Compound 0.003 µM
  viability, T/C: 94% [middle of 10 runs]
Compound 0.0949 µM
  viability, T/C: 7.65% [middle of 10 runs]
Compound 0.3 µM
  viability, T/C: 5.65% [middle of 10 runs]
[1]
  IC50: 21.8 nM [middle of 5 runs]
[2]
  IC50: 28.5 nM [middle of 5 runs]

## CNCc1ccc(-c2cc(-c3nc(-c4ccc(S(=O)(=O)C(C)C)cc4)cnc3N)on2)cc1
Compound 0.00949 µM
  viability, T/C: 77.7% and 86.1% and 87.9%
Compound 0.03 µM
  viability, T/C: 77.8% and 85% and 86.1%
Compound 0.0949 µM
  viability, T/C: 76% and 74.3% and 83%
Compound 0.3 µM
  viability, T/C: 48.9% and 63.3% and 41%
Compound 0.949 µM
  viability, T/C: 9.28% and 11.6% and 7.52%
Compound 3 µM
  viability, T/C: 2.21% and 6.18% and 1.41%
Curve of compound
  IC50: 289 nM and 399 nM and 235 nM

## COc1cc(C)[nH]c(=O)c1CN1CCc2c(Cl)cc(C(OC)C3COC3)c(Cl)c2C1=O (stereo not drawn)
Compound 0.0316 µM
  viability, T/C: 90.1% and 94.4%
  outcome: inactive
Compound 0.1 µM
  viability, T/C: 60.6% and 79.6% and 86.1%
Compound 0.316 µM
  viability, T/C: 62.8% and 67% and 69.9%
Compound 1 µM
  viability, T/C: 50.1% and 56.3% and 63.1%
Compound 3.16 µM
  viability, T/C: 44.1% and 54.4% and 58.9%
Compound 10 µM
  viability, T/C: 41.7% and 49.4% and 52.7%
Curve of compound
  IC50: 1550 nM and > 10000 nM

## COc1cc2c(cc1O)CCNC21CSC2c3c(OC(C)=O)c(C)c4c(c3C(COC1=O)N1C(O)C3Cc5cc(C)c(OC)c(O)c5C(C21)N3C)OCO4 (stereo not drawn)
Compound 0.000949 µM
  viability, T/C: 2.96% [middle of 10 runs]
Compound 0.003 µM
  viability, T/C: 1.18% [middle of 9 runs]
[2]
  IC50: 0.256 nM [middle of 10 runs]

## COc1ccc([C@@H](O)c2cc(-c3ncnc4cc(N5CCOCC5)ccc34)c(F)cc2Cl)nn1
Compound 0.0316 µM
  viability, T/C: 99.7% and 97.1% and 92.4%
Compound 0.1 µM
  viability, T/C: 113% and 95.6% and 88.6%
Compound 0.316 µM
  viability, T/C: 71.4% and 65.5% and 79.8%
Compound 1 µM
  viability, T/C: 45.9% and 32.2% and 52%
Compound 3.16 µM
  viability, T/C: 17.3% and 11.2% and 21.3%
Compound 10 µM
  viability, T/C: 10.2% and 6.84% and 8.9%
Curve of compound
  IC50: 780 nM and 549 nM and 1080 nM

## Cc1cc(C)c(CNC(=O)c2cc(-c3ccc(CN4CCOCC4)cc3)cc3c2cnn3C2CCCC2)c(=O)[nH]1
Compound 0.0316 µM
  viability, T/C: 101% and 98% and 103%
Compound 0.1 µM
  viability, T/C: 100% and 106% and 101%
Compound 0.316 µM
  viability, T/C: 98.5% and 97.2% and 99.1%
Compound 1 µM
  viability, T/C: 103% (2×) and 100%
Compound 3.16 µM
  viability, T/C: 102% and 107% and 112%
Compound 10 µM
  viability, T/C: 91.8% and 91.9% and 104%
Curve of compound
  IC50: > 10000 nM

## Cc1sc2c(c1C)C(c1ccc(Cl)cc1)=NC(CC(=O)Nc1ccc(O)cc1)c1nnc(C)n1-2 (stereo not drawn)
Compound 0.00949 µM
  viability, T/C: 72.1% and 86.4% and 77.2%
Compound 0.03 µM
  viability, T/C: 66.8% and 59.2% and 64.1%
Compound 0.0949 µM
  viability, T/C: 47.3% and 45% and 46.2%
Compound 0.3 µM
  viability, T/C: 30.5% and 32.6% and 28.8%
Compound 0.949 µM
  viability, T/C: 25.7% and 24.2% and 20.7%
Compound 3 µM
  viability, T/C: 18.6% and 22.5% and 15.8%
Curve of compound
  IC50: 84.1 nM and 60.9 nM and 73.1 nM

## Cn1ncnc1[C@H]1c2n[nH]c(=O)c3cc(F)cc(c23)N[C@@H]1c1ccc(F)cc1
Compound 0.00949 µM
  viability, T/C: 82.2% and 101% and 87.7%
Compound 0.03 µM
  viability, T/C: 81.7% and 78.2% and 85.3%
Compound 0.0949 µM
  viability, T/C: 68.5% and 82.6% and 74.7%
Compound 0.3 µM
  viability, T/C: 55.8% and 65.9% and 58.5%
Compound 0.949 µM
  viability, T/C: 33.7% and 41.4% and 36%
Compound 3 µM
  viability, T/C: 7.23% and 7.48% and 6.56%
Curve of compound
  IC50: 400 nM and 619 nM and 469 nM

## Cn1nnc2c(C(N)=O)ncn2c1=O
Compound 1 µM
  viability, T/C: 104% [middle of 10 runs]
Compound 3.16 µM
  viability, T/C: 103% [middle of 10 runs]
Compound 10 µM
  viability, T/C: 107% [middle of 10 runs]
Compound 100 µM
  viability, T/C: 104% [middle of 10 runs]
[1]
  IC50: > 100000 nM

## O=C(c1cc(Cc2n[nH]c(=O)c3ccccc23)ccc1F)N1CCN(C(=O)C2CC2)CC1
Compound 0.0949 µM
  viability, T/C: 113% and 96.3% and 94.1%
Compound 0.3 µM
  viability, T/C: 98.4% and 84.9% and 93.2%
Compound 0.949 µM
  viability, T/C: 101% and 89.1% and 92.5%
Compound 3 µM
  viability, T/C: 98.7% and 88% and 87%
Compound 9.49 µM
  viability, T/C: 74.6% and 71.3% and 67.4%
Compound 30 µM
  viability, T/C: 67.4% and 52.5% and 47.3%
Curve of compound
  IC50: > 30000 nM and 25800 nM

## [2H]c1nc(C)nc([2H])c1-c1cc(NC[C@@H](C)c2cccc3c(C(=O)NC)ccnc23)ncn1
Compound 0.0316 µM
  viability, T/C: 70.8% and 104% and 89.9%
Compound 0.1 µM
  viability, T/C: 77.2% and 94.7% and 88.6%
Compound 0.316 µM
  viability, T/C: 80% and 92.6% and 90.8%
Compound 1 µM
  viability, T/C: 79.4% and 104% and 99.8%
Compound 3.16 µM
  viability, T/C: 86.9% and 95.6% and 103%
Compound 10 µM
  viability, T/C: 83.2% and 99.6% and 104%
Curve of compound
  IC50: > 10000 nM

From PubChem BioAssay AID1845217 (Molecular Pharmacology Branch, DTP, NCI, 2023)
